From US9101136B2, “Synergistic herbicide/fungicide composition containing certain pyridine carboxylic acids and certain fungicides” (Dow AgroSciences LLC, priority 2010, dated 2015)
Read-outs that look alike come from different tables or passages of the source.

What was measured:
Type in all cases: in vivo
[1] = system: Canada thistle (Cirsium arvense L; CIRAR); test: Postemergence herbicidal activity of mixtures on Canada thistle; settings: for CIRAR Ob (observed control): alone
Protocol: (§1) Seeds of the desired test plant species were planted in Sun Gro MetroMix 306 planting mixture, which typically has a pH of 6.0 to 6.8 and an organic matter content of about 30 percent, in plastic pots with a surface area of 103.2 square centimeters (cm^2). When required to ensure good germination and healthy plants, a fungicide treatment and/or other chemical or physical treatment was applied. The plants were grown for 7-36 days (d) in a greenhouse with an approximate 14-hour (h) photoperiod which was maintained at about 18° C. during the day and 17° C. during the night. Nutrients and water were added on a regular basis and supplemental lighting was provided with overhead metal halide 1000-Watt lamps as necessary. The plants were employed for testing when they reached the second or third true leaf stage.
(§2) Treatments consisted of a cereal fungicide compound (as listed in Tables 1 through 34) and the cereal herbicide, 4-amino-3-chloro-6-(4-chloro-2-fluoro-3-methoxyphenyl)pyridine-2-carboxylic acid, alone and in combination. Weighed amounts of acid, esters (methyl) or salts (triethylammonium, TEA) of 4-amino-3-chloro-6-(4-chloro-2-fluoro-3-methoxyphenyl)pyridine-2-carboxylic acid (Compound I) were placed in 25 milliliter (mL) glass vials and dissolved in a volume of 97:3 volume-to-volume (v/v) acetone/dimethyl sulfoxide (DMSO) to obtain 4.5 milligrams active ingredient per milliliter (mg ai/mL) concentrated solutions. […] The concentrated solutions of Compound I were diluted to 1.5 mg ai/mL with the addition of 2 volumes of an aqueous mixture containing acetone, water, isopropyl alcohol, DMSO, Agri-dex crop oil concentrate, and Triton® X-77 surfactant in a 64.7:26.0:6.7:2.0:0.7:0.01 v/v ratio. A dilution solution was prepared by mixing 1 volume of 97:3 v/v acetone/DMSO and 2 volumes of an aqueous mixture containing acetone, water, isopropyl alcohol, DMSO, Agri-dex crop oil concentrate, and Triton® X-77 surfactant in a 64.7:26.0:6.7:2.0:0.7:0.01 v/v ratio. Compound requirements are based upon a 12 mL application volume at a rate of 187 liters per hectare (L/ha). The concentrated solutions of the cereal fungicides were prepared following the same procedure. Weighed amounts of fungicide were placed in 25 mL glass vials and dissolved in a volume of 97:3 v/v acetone/DMSO to obtain concentrated fungicide solutions. The concentrated solutions of the safener were prepared following the same procedure. Weighed amounts of safener were placed in 25 mL glass vials and dissolved in a volume of 97:3 v/v acetone/DMSO to obtain concentrated safener solutions.
(§3) Spray solutions of the cereal herbicide and the fungicidal compound mixtures were prepared by adding the concentrated solutions to the appropriate amount of dilution solution to form 12 mL spray solution with active ingredients in combinations. Spray solutions of the cereal herbicide, herbicide safener and the fungicidal compound mixtures were prepared by adding the concentrated solutions to the appropriate amount of dilution solution to form 12 mL spray solution with active ingredients in combinations. […]
(§4) The treated plants and control plants were placed in a greenhouse as described above and watered by sub-irrigation to prevent wash-off of the test compounds. After 20-22 d, the condition of the test plants as compared with that of the control plants was determined visually and scored on a scale of 0 to 100 percent where 0 corresponds to no injury and 100 corresponds to complete kill. […]

[2] = system: redroot pigweed (Amaranthus retroflexus L; AMARE); test: Postemergence herbicidal activity of mixtures on redroot pigweed; settings: for AMARE Ob (observed control): alone
Protocol: as §1, §2, §3, §4

[3] = system: wild pansy (Viola tricolor L; VIOTR); test: Postemergence herbicidal activity of mixtures on wild pansy
Protocol: as §1, §2
Spray solutions of the cereal herbicide and the fungicidal compound mixtures were prepared by adding the concentrated solutions to the appropriate amount of dilution solution to form 12 mL spray solution with active ingredients in combinations. Spray solutions of the cereal herbicide, herbicide safener and the fungicidal compound mixtures were prepared by adding the concentrated solutions to the appropriate amount of dilution solution to form 12 mL spray solution with active ingredients in combinations.
Formulated compounds were applied to the plant material with an overhead Mandel track sprayer equipped with 8002E nozzles calibrated to deliver 187 L/ha over an application area of 0.503 square meters (m^2) at a spray height of 18 inches […] above average plant canopy. Control plants were sprayed in the same manner with the solvent blank.
as §4

[4] = system: lamb's-quarter (Chenopodium album L; CHEAL); test: Postemergence herbicidal activity of mixtures on lamb's-quarter; settings: for CHEAL Ob (observed control): alone
Protocol: as §1
as §2, with “The concentrated solutions of the safener were prepared following the same procedure. Weighed amounts of safener were placed in 25 mL glass vials and dissolved in a volume of 97:3 v/v acetone/DMSO to obtain concentrated safener solutions.” left out
as §4

[5] = system: chickweed (Stellaria media L; STEME); test: Postemergence herbicidal activity of mixtures on chickweed; settings: for STEME Ob (observed control): alone
Protocol: as §1
Treatments consisted of a cereal fungicide compound (as listed in Tables 1 through 34) and the cereal herbicide, 4-amino-3-chloro-6-(4-chloro-2-fluoro-3-methoxyphenyl)pyridine-2-carboxylic acid, alone and in combination. Weighed amounts of acid, esters (methyl) or salts (triethylammonium, TEA) of 4-amino-3-chloro-6-(4-chloro-2-fluoro-3-methoxyphenyl)pyridine-2-carboxylic acid (Compound I) were placed in 25 milliliter (mL) glass vials and dissolved in a volume of 97:3 volume-to-volume (v/v) acetone/dimethyl sulfoxide (DMSO) to obtain 4.5 milligrams active ingredient per milliliter (mg ai/mL) concentrated solutions. […] The concentrated solutions of Compound I were diluted to 1.5 mg ai/mL with the addition of 2 volumes of an aqueous mixture containing acetone, water, isopropyl alcohol, DMSO, Agri-dex crop oil concentrate, and Triton® X-77 surfactant in a 64.7:26.0:6.7:2.0:0.7:0.01 v/v ratio. […]
as §4

CC(Cc1ccc(C(C)(C)C)cc1)CN1CCCCC1 (racemic) [Fenpropidin, (±)-1-[3-[4-(1,1-dimethylethyl)phenyl]-2-methylpropyl]piperidine]
0%: CIRAR Ob ([1]; fungicide 562.5 g/ha alone) | AMARE Ob ([2]; fungicide 562.5 g/ha alone) | pest or weed control at 562.5 g/ha ([3]; Viola tricolor, post-emergence, fungicide 562.5 g/ha alone, read-out: VIOTR Ob) | CHEAL Ob ([4]; fungicide 562.5 g/ha alone)

FC(F)C(F)(F)OCC(Cn1cncn1)c1ccc(Cl)cc1Cl (racemic) [Tetraconazole, (±)-1-[2-(2,4-dichlorophenyl)-3-(1,1,2,2-tetrafluoroethoxy)propyl]-1H-1,2,4-triazole]
0%: CIRAR Ob (observed control) ([1]; 125 g/ha) | AMARE Ob (observed control) ([2]; 125 g/ha) | pest or weed control at 125 g/ha ([3]; Viola tricolor, post-emergence, alone, 125 g/ha, read-out: VIOTR Ob (observed control)) | STEME Ob (observed control) ([5]; 125 g/ha) | CHEAL Ob (observed control) ([4]; 125 g/ha)

CC(C)NC(=O)N1CC(=O)N(c2cc(Cl)cc(Cl)c2)C1=O [Iprodione, 3-(3,5-dichlorophenyl)-N-(1-methylethyl)-2,4-dioxo-1-imidazolidine=carboxamide]
0%: CIRAR Ob ([1]; fungicide 750 g/ha alone) | AMARE Ob ([2]; fungicide 750 g/ha alone) | pest or weed control at 750 g/ha ([3]; Viola tricolor, post-emergence, fungicide 750 g/ha alone, read-out: VIOTR Ob)

CO/C=C(/C(=O)OC)c1ccccc1COc1cccc(C(F)(F)F)n1 [Picoxystrobin, methyl (E)-(α)-(methoxymethylene)-2-[[[6-(trifluoromethyl)-2-pyridinyl]oxy]methyl]benzeneacetate]
0%: CIRAR Ob ([1]; fungicide 250 g/ha alone) | AMARE Ob ([2]; fungicide 250 g/ha alone) | VIOTR Ob ([3]; fungicide 250 g/ha alone) | STEME Ob ([5]; fungicide 250 g/ha alone) | CHEAL Ob ([4]; fungicide 250 g/ha alone)

COC(=O)NC(=S)Nc1ccccc1NC(=S)NC(=O)OC [Thiophanate-methyl, dimethyl[1,2-phenylenebis(iminocarbonothioyl)]bis[carbamate]]
0%: CIRAR Ob (observed control) ([1]; 750 g/ha) | AMARE Ob (observed control) ([2]; 750 g/ha) | pest or weed control at 750 g/ha ([3]; Viola tricolor, post-emergence, alone, 750 g/ha, read-out: VIOTR Ob (observed control)) | STEME Ob (observed control) ([5]; 750 g/ha) | CHEAL Ob (observed control) ([4]; 750 g/ha)
